Test results taken from US20260240872A1, “COMBINATION OF METFORMIN AND GLIBENCLAMIDE IN THE TREATMENT OF PARKINSON'S DISEASE” (CXS THERAPEUTICS, priority 2023, published 2026).

Assays:
Assay type in all cases: cell-based
[1] = system: rat primary dopaminergic neurons; assay: Example 2: 6-OHDA injury, protective protocol, total number of TH positive neurons (dopaminergic neurons survival); conditions: for cellular death / protection of dopaminergic neurons from cell death induced by 6-OHDA: one-hour pre-treatment; for cellular death: 6-OHDA 20 μM 48 hours, Plate 1, not significant; for protection of dopaminergic neurons from cell death induced by 6-OHDA: compound alone, 6-OHDA 48 hours, conclusion; for cellular death (decrease of dopaminergic neurons survival): 48 hours; for dopaminergic neurons survival: BDNF 50 ng/ml + 6-OHDA 20 μM 48 hours
Experimental: (§1) The total number and the neurites length of dopaminergic neurons was assessed.
(§2) Rat mesencephalic neurons were cultured as described by Schinelli et al., 1988. Briefly pregnant female rats of 15 days gestation were killed by cervical dislocation (Rats Wistar; Janvier Lab) and the fetuses removed from the uterus. The embryonic midbrains were removed and placed in ice-cold medium of Leibovitz 15 (L15; PanBiotech, Ref P04-27055, Batch: 1260323) containing 2% of Penicillin-Streptomycin (PS; PanBiotech, ref: P06-07100, Batch: 2585615) and 1% of bovine serum albumin (BSA; Sigma, Ref: 810533, Batch: 73). Only the ventral portions of the mesencephalic flexure were used for the cell preparation as this region of the developing brain is enriched in dopaminergic neurons. The midbrains were dissociated by […] for 20 minutes (min) at 37° C. (Trypsin EDTA 1×; PanBiotech, Ref: P10-023100, Batch: 8290223). The reaction was stopped by the addition of Dulbecco's modified Eagles medium (DMEM; PanBiotech, Ref: P04-03600, Batch: 6041222) containing Dnase | grade II (0.1 mg/ml; PanBiotech, Ref: P60-37780100, Batch: H210916) and 10% of fetal calf serum (FCS; Invitrogen, Ref: 10270106, Batch: 2534381). Cells were then mechanically dissociated by 3 passages through a 10 mL pipette. Cells were then centrifuged at 180×g for 10 min at +4° C. on a layer of BSA (3.5%) in L15 medium. The supernatant was discarded and the cell pellets were resuspended in a defined culture medium consisting of Neurobasal Plus (Gibco, Ref: A3582901, Batch: 2537248) supplemented with 2% of B27 Plus (Gibco, ref: A3582801, Batch: 2722550), L-glutamine (2 mM; PanBiotech, Ref: P04-80100, Batch: 7061121), 2% of PS, 10 ng/ml of BDNF PeproTech, Ref: 450-02, Batch: 092361) and 1 ng/ml of Glial Derived Neurotrophic factor (GDNF; PeproTech, Ref: 450-10, Batch: 012364). Viable cells were then counted in a Neubauer cytometer using the trypan blue exclusion test. The cells were seeded at a density of 40 000 cells/well in 96 well-plates coated with poly-L-Ornithine (Sigma, Ref: P4957, Batch: RNBL6953) and laminin (Sigma, Ref: L2020, Batch: 0000216258), and were cultured at 37° C. in a humidified air (95%)/CO2 (5%) atmosphere. Half of the medium was changed every 2 days with fresh medium. In these conditions, after 5 days of culture, astrocytes are present in the culture and release growth factor allowing neurons differentiation. In this condition, 2 to 5% of neurons are dopaminergic neurons.
(§3) Briefly, 6-OHDA (Sigma, Ref: H4381, Batch: MKCQ5002) was reconstituted in define culture medium at 40 μM (stock solution). The control medium was prepared in the same conditions. After 7 days of culture, primary mesencephalic neurons were pre-treated for 1 hour with test compounds or reference compound (BDNF, 50 ng/ml) and then intoxicated with 6-OHDA at a final concentration of 20 μM for 2 days incubation in order to induce a neuronal cell death of about 40%. The following conditions were done:
(§4) After 2 days of intoxication, cells were fixed by a solution of 4% paraformaldehyde (Alpha Aesar, ref J19943, Batch: 211457) for 20 min at room temperature, the control conditions were fixed as well following the same procedure. The cells were then permeabilized and non-specific sites were blocked with a solution of phosphate buffered saline (PBS; VWR; ref: L0615-500, Batch: MS01 MB) containing 0.1% of saponin (Sigma; ref: S7900, Batch: BCBL8667V) and 1% FCS for 15 min at room temperature. Cells were incubated with a rabbit polyclonal anti-Tyrosine Hydroxylase antibody (TH, 1/1000, Sigma, ref: AB152, Batch: 3870479) in a solution of PBS overnight at 4° C.
(§5) Nuclei of cells were labelled by a fluorescent marker (Hoechst, Sigma; ref: B1155, Batch: 046M4048V) in the same solution.
(§6) For each condition, 20 pictures per well were taken using InCell Analyzer™ 2200 (GE Healthcare) with 20× magnification. Images of each culture well were taken in same condition.

[2] = system: rat primary dopaminergic neurons; assay: Example 2: 6-OHDA injury, protective protocol, length of TH positive neurites; conditions: for neurites loss / protection of neurites from damages induced by 6-OHDA: one-hour pre-treatment, 6-OHDA 48 hours; for neurites loss: Plate 1, not significant; for protection of neurites from damages induced by 6-OHDA: compound alone, conclusion; for neurites loss (decrease of neurites length): 6-OHDA 20 μM, 48 hours; for neurites length: p<0.05
Experimental: as §1, §2, §3, §4, §5, §6

[3] = system: rat primary dopaminergic neurons; assay: Example 1: 6OH-DA injury on rat primary mesencephalic culture, number of TH positive dopaminergic neurons (survival/viability); conditions: FIG. 1
[4] = system: rat primary dopaminergic neurons; assay: Example 1: 6OH-DA injury on rat primary mesencephalic culture, neurite length (fitness) of dopaminergic neurons; conditions: compound alone; as compared to Brain Derived Neurotrophic Factor; FIG. 2
From the text: In these conditions, after 5 days of culture, astrocytes are present in the culture and release growth factor allowing neurons differentiation.

| Molecule | cellular death ([1]; compound alone at 1 μM) [%] | cellular death ([1]; compound alone at 3 μM) [%] | cellular death ([1]; compound alone at 10 μM) [%] | protection of dopaminergic neurons from cell death induced by 6-OHDA [1] | neurites loss ([2]; compound alone at 1 μM) [%] | neurites loss ([2]; compound alone at 3 μM) [%] | neurites loss ([2]; compound alone at 10 μM) [%] | protection of neurites from damages induced by 6-OHDA [2] | other results |
| --- | --- | --- | --- | --- | --- | --- | --- | --- | --- |
| CN(C)C(=N)NC(=N)N [CXS001, 1,1-dimethylbiguanide] | 43 | 44 | 51 | does not protect | 38 | 43 | 55 | does not protect | – |
| NCCc1cc(O)c(O)cc1O [6-OHDA, 6-hydroxydopamine] | – | – | – | – | – | – | – | – | cellular death (decrease of dopaminergic neurons survival) ([1]; 20 μM, Plate 2, FIG. 7, p<0.0001): 55%; cellular death (decrease of dopaminergic neurons survival) ([1]; 6-OHDA 20 μM, Plate 1, FIG. 6, p<0.0001): 54%; cellular death (decrease of dopaminergic neurons survival) ([1]; 6-OHDA 20 μM, Plate 3, FIG. 8, p<0.001): 46%; neurites loss (decrease of neurites length) ([2]; Plate 1, FIG. 9, p<0.001): 54%; neurites loss (decrease of neurites length) ([2]; Plate 2, FIG. 10, p<0.0001): 56%; neurites loss (decrease of neurites length) ([2]; Plate 3, FIG. 11, p<0.001): 45% |
| COc1ccc(Cl)cc1C(=O)NCCc1ccc(S(=O)(=O)NC(=O)NC2CCCCC2)cc1 [CXS002, Glibenclamide] | 58 | 57 | 47 | does not protect | 58 | 57 | 47 | does not protect | neuron viability ([3]; at high concentration, 6OHDA intoxication): seems to decrease neuron viability; dopaminergic neuron survival in 6OHDA intoxication ([3]; compound alone, as compared to Brain Derived Neurotrophic Factor): did not improve dopaminergic neuron survival; dopaminergic neuron fitness (neurite length) in 6OHDA intoxication [4]: did not improve dopaminergic neuron fitness |
| BDNF: Brain Derived Neurotrophic factor, used as reference compound (positive control) at 50 ng/ml (protein, UniProt P23560 19-247, looked up) Neurotrophic factor BDNF …: APMKEANIRGQGGLAYPGVRTHGTLESVNGPKAGSRGLTSLADTFEHVIEELLDEDQKVRPNEENNKDADLYTSRVMLSSQVPLEPPLLFLLEEYKNYLDAANMSMRVRRHSDPARRGELSVCDSISEWVTAADKKTAVDMSGGTVTVLEKVPVSKGQLKQYFYETKCNPMGYTKEGCRGIDKRHWNSQCRTTQSYVRALTMDSKKRIGWRFIRIDTSCVCTLTIKRGR | – | – | – | – | – | – | – | – | dopaminergic neurons survival ([1]; Plate 1, FIG. 6, p<0.05): 81 % of the control; dopaminergic neurons survival ([1]; Plate 2, FIG. 7, p<0.0001): 87 % of the control; dopaminergic neurons survival ([1]; Plate 3, FIG. 8, p<0.05): 83 % of the control; neurites length ([2]; BDNF 50 ng/mL + 6-OHDA 20 μM 48 hours, Plate 1, FIG. 9): 79 % of the control; neurites length ([2]; BDNF 50 ng/ml + 6-OHDA 20 μM 48 hours, Plate 2, FIG. 10): 76 % of the control; neurites length ([2]; BDNF 50 ng/ml + 6-OHDA 20 μM 48 hours, Plate 3, FIG. 11): 85 % of the control |
